According to PubChem BioAssay AID2060609 (Molecular Pharmacology Branch, DTP, NCI, 2025):

System: 855422-203-R-J1-PDC complex spheroids, viability
Test: Anticancer human tumor 855422-203-R-J1-PDC patient-derived bladder carcinoma cell line growth inhibition [CLK]
Settings: for IC50: curve of first compound; for viability, T/C: stronger effect = lower value; active = viability on the fitted dose curve at most 10% of control; inactive = the rest
Summary of the method: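 Multi-cell-type spheroids combined patient-derived tumor cells with HUVEC endothelial cells and human mesenchymal stem cells. Paired agents were dosed in half-log steps down from about clinical Cmax, or from 10 microM where Cmax was unknown.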
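Also: spheroids exposed to drugs for seven days before readout.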
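For viability, T/C in this document: 100% = DMSO vehicle control wells.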

C=CC(=O)Nc1cc(Nc2nccc(-c3cn(C)c4ccccc34)n2)c(OC)cc1N(C)CCN(C)C + CN1CCN(c2cc(C(=O)Nc3cc4cc(-c5cnn(C)c5)ccc4cn3)ccn2)CC1
> 300 nM: IC50 (second compound 0.0316 µM) | IC50 (second compound 0.1 µM)
< 0.949 nM: IC50 (second compound 0.316 µM) | IC50 (second compound 1 µM) | IC50 (second compound 3.16 µM) | IC50 (second compound 10 µM)
active: viability, T/C (second compound 0.316 µM, first compound 0.000949 µM) 7.04% | viability, T/C (second compound 0.316 µM, first compound 0.003 µM) 9.27% | viability, T/C (second compound 0.316 µM, first compound 0.00949 µM) 8.35% | viability, T/C (second compound 0.316 µM, first compound 0.03 µM) 11.4% | viability, T/C (second compound 0.316 µM, first compound 0.0949 µM) 8.34% | viability, T/C (second compound 0.316 µM, first compound 0.3 µM) 7.28% | viability, T/C (second compound 1 µM, first compound 0.000949 µM) 0.18% | viability, T/C (second compound 1 µM, first compound 0.003 µM) 0.31% | viability, T/C (second compound 1 µM, first compound 0.00949 µM) 0.54% | viability, T/C (second compound 1 µM, first compound 0.03 µM) 0.25% | viability, T/C (second compound 1 µM, first compound 0.0949 µM) 1.14% | viability, T/C (second compound 1 µM, first compound 0.3 µM) 0.46% | viability, T/C (second compound 3.16 µM, first compound 0.000949 µM) 0.7% | viability, T/C (second compound 3.16 µM, first compound 0.003 µM) 0.52% | viability, T/C (second compound 3.16 µM, first compound 0.00949 µM) 0.64% | viability, T/C (second compound 3.16 µM, first compound 0.03 µM) 0.46% | viability, T/C (second compound 3.16 µM, first compound 0.0949 µM) 0.68% | viability, T/C (second compound 3.16 µM, first compound 0.3 µM) 0.93% | viability, T/C (second compound 10 µM, first compound 0.000949 µM) 0.4% | viability, T/C (second compound 10 µM, first compound 0.003 µM) 1.47% | viability, T/C (second compound 10 µM, first compound 0.00949 µM) 0.52% | viability, T/C (second compound 10 µM, first compound 0.03 µM) 0.85% | viability, T/C (second compound 10 µM, first compound 0.0949 µM) 0.58% | viability, T/C (second compound 10 µM, first compound 0.3 µM) 0.28%
inactive: viability, T/C (second compound 0.0316 µM, first compound 0.000949 µM) 104% | viability, T/C (second compound 0.0316 µM, first compound 0.003 µM) 88.3% | viability, T/C (second compound 0.0316 µM, first compound 0.00949 µM) 112% | viability, T/C (second compound 0.0316 µM, first compound 0.03 µM) 102% | viability, T/C (second compound 0.0316 µM, first compound 0.0949 µM) 97.6% | viability, T/C (second compound 0.0316 µM, first compound 0.3 µM) 91.4% | viability, T/C (second compound 0.1 µM, first compound 0.000949 µM) 79.1% | viability, T/C (second compound 0.1 µM, first compound 0.003 µM) 80.4% | viability, T/C (second compound 0.1 µM, first compound 0.00949 µM) 85.8% | viability, T/C (second compound 0.1 µM, first compound 0.03 µM) 91.7% | viability, T/C (second compound 0.1 µM, first compound 0.0949 µM) 74.8% | viability, T/C (second compound 0.1 µM, first compound 0.3 µM) 64.5%
